Results as given in patent US12338266B2 (GENETIC S.P.A., priority 2019, dated 2025).

System: mice with OVA-induced allergic asthma
Experiment: Plasma IgE levels by ELISA in OVA-sensitized mice (Protocol-1)
Assay type: in vivo, Balb/c mice
Protocol: Balb/c mice (8-9 weeks old, Charles River, Calco, Italy) were housed in the animal care facility at the Department of Pharmacy of the University of Naples. Italy in a controlled environment (temperature 21±2° C. and humidity 60±10%) and provided with standard rodent chow and water. All animals were allowed to acclimate for four days prior to experiments and were subjected to 12 h light-12 h dark schedule. Each mouse was assigned an identity number and randomtzed to different groups so that all experiments were carried out in a blinded manner. The experimental procedures were approved by the Italian Ministry according to International and National law and policies (EU Directive 2010/63/EU and Italian DL 26/2014 for animal experiments, ARRIVE guidelines and the Basel declaration including the 3R concept). Animal studies are reported in compliance with the ARRIVE guidelines. Balb/c mice is the most widely mouse strain used to study asthma-like features in vivo and to investigate the undedying molecular and cellular mechanisms of allergen sensitization. Mice were treated subcutaneously (s.c.) with 0.4 mL (100 μg) of ovalbumin (OVA) complexed with alum (13 mg mL^−1) (OVA group) at day 0 and 7. Chicken egg-white ovalbumin (OVA: grade V. cat. A5503, Sigma Chemical Co., St. Louis, MO) was dissolved in sterile phosphate buffered saline (PBS) solution (250 μg/1 ml) and Al(OH)3 was added (at 13 mg/ml). This mix was used to induce the allergic sensitization of the animals by subcutaneous injection. OVA was dissolved at 3% in sterile PBS solution and this solution was nebulized (as the immunological challenges). At day 21 mice were exposed to OVA challenge for three days and then sacrificed. This experimental procedure induces in the mice an increase in plasma IgE levels and this effect is by itself sufficient to induce a significant increase in bronchial hyper-responsiveness and pulmonary inflammation, typical hallmarks of asthma. A group of animals was treated s.c. with saline (vehicle group). […] Animals were killed at selected time points by overdose of enflurane and bronchi and blood collected.
Blood was collected by intracardiac puncture using citrate as anticoagulant. Plasma was obtained by centrifugation at 800×g at 4′C for 10 minutes and immediately frozen at −80° C. Total IgE levels were measured by means of ELISA using matched antibody pairs (BD Biosciences Pharmingen San Jose, Calif.).

`CC(C)(O)c1ccccc1CCC(SCC1(CC(=O)OCC(=O)[C@@]23O[C@H](C4CCCCC4)O[C@@H]2C[C@H]2[C@@H]4CCC5=CC(=O)C=C[C@]5(C)[C@H]4[C@@H](O)C[C@@]23C)CC1)c1cccc(/C=C/c2ccc3ccc(Cl)cc3n2)c1` (some centres unmarked) [montelukast desisobutyryl-ciclesonide ester] was tested. Which “allergen induced plasma IgE increase” value (0.5, 1 and 2 mg/Kg i.p.) did it give?
Its value is “reduces allergen induced IgE increase in a dose-dependent manner”.

What about the “inhibition of allergen induced IgE increase, compared to ciclesonide” value (ester 2 mg/kg i.p. vs ciclesonide 1 mg/kg, FIG. 6C) of the same compound?
Its value is “increased inhibitory effect”.
